Source: patent US20250152591A1, “TREATMENT OF HEMATOLOGICAL MALIGNANCIES WITH MENIN INHIBITORS AND P-GLYCOPROTEIN INHIBITORS” (Kura Oncology, Inc., priority 2022, published 2025)
pIC50: −log10 of the molar value. Where two headings read alike, the source gives them in different places.

What was measured:
Menin = biological target: T1, Menin (Homo sapiens, UniProt O00255); test: Menin binding, fluorescence polarization assay; settings: fluorescence polarization assay analogous to WO2017/161028, Example 6
T1 sequence (O00255 1-610): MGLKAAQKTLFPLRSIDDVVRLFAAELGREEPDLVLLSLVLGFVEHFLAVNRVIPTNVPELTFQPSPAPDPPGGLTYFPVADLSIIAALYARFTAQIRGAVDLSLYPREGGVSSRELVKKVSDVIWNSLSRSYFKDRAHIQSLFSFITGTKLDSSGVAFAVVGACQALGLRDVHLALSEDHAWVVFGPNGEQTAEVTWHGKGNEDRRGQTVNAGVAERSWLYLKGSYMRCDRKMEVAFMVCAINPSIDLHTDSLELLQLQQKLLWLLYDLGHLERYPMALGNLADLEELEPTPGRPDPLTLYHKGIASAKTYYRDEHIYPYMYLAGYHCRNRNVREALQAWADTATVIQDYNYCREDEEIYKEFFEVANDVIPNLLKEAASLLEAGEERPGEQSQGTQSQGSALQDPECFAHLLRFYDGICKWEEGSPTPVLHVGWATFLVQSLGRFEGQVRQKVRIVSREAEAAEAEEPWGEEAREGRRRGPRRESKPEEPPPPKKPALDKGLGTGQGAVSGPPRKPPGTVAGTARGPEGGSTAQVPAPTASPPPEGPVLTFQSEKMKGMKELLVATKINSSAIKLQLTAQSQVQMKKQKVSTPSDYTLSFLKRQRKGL
Procedure: Menin binding was evaluated using an assay analogous to the fluorescence polarization assay described in PCT Publ. No. WO2017/161028, Example 6.

MV4;11-Control cell line = test: CellTiter-Glo cell viability assay, MV4;11-Control; assay type: cell-based; design: unit of the concentration uncertain; settings: second set of experiments
Procedure: (§1) The influence of efflux pumps on the antitumor activity of the test compounds at steady state (more clinically relevant) were evaluated using P-gp-transfected AML cells (MV4;11 cells) in 6-day viability assays.
(§2) A P-gp-expressing KMT2A(MLL)-rearranged cell line model was developed by lentiviral transduction of the MV4;11 parental cell line and then selection for either Luciferase ORF (MV4;11-Control) or P-gp ORF (MV4;11-PGP).
(§3) […] Cell viability was measured by CellTiter-Glo® Luminescent Cell Viability Assay (CTG assay, Promega Corp.) and % Viability was quantified by normalizing to the luminescence values of DMSO-only treated cells. The dose-response curves and IC50's were calculated using GraphPad Prism 9.4.1.
(§4) The measured luminescence in the live cells of the MV4;11-Control and MV4;11-PGP cells that were treated with Compound I only (+DMSO), Compound I+posaconazole […], and valspodar (1 mM) are shown in FIGS. 5A and 5B.
(§5) In a second set of experiments, MV4;11-Control and MV4;11-PGP cell lines were treated as described above with five menin inhibitors, including Compound I, SNDX-5613, Compound A, Compound B, and Compound C, at concentrations ranging from 0 to 1000 nM. All tested compounds dropped in potency due to the P-gp expression as shown in FIGS. 6A-6J and in Tables 5 and 6 (indicated by increased IC50 values between “MV4;11-Control (Compound+DMSO)” and “MV4;11-PGP (Compound+DMSO)” entries).

MOLM13-PGP cell line = test: Cell viability assay, MOLM13-PGP; assay type: cell-based; design: unit of the concentration uncertain; settings: 168 h, 7 days
Procedure: (§6) The effects described above were investigated in an AML cell line, MOLM-13, which carries a KA4T2A (MLL)-rearrangement mutation. The P-gp expressing MOLM-13 cell line (MOLM13-PGP) and the Luciferase expressing MOLM-13 cell line (MOLM13-Control) were established by lentivirally transducing P-gp ORF or Luciferase ORF. Cells were plated and treated with test compound for 7 days.

MOLM13-Control cell line = test: Cell viability assay, MOLM13-Control; assay type: cell-based; design: unit of the concentration uncertain; settings: 168 h, 7 days
Procedure: as §6

OCI-AML3-PGP cell line = test: Cell viability assay, OCI-AML3-PGP; assay type: cell-based; design: unit of the concentration uncertain; settings: 168 h, 7 days
Procedure: (§7) A third set of experiments was conducted in the cell line OCI-AML3, which carries the W288Cfs*12 mutation in NPM protein. The P-gp expressing OCI-AML3 cell line (OCI-AML3-PGP) and the Luciferase expressing OC-AML3 cell line (OCI-AML3-Control) were established by lentivirally transducing P-gp ORF or Luciferase ORF. Cells were treated with Compound I or SNDX-5613 for 7 days to assess the IC50 values.

MV4;11-PGP cell line = test: CellTiter-Glo cell viability assay, MV4;11-PGP; assay type: cell-based; design: unit of the concentration uncertain; settings: second set of experiments
Procedure: as §1, §2, §3, §4, §5

[1] = system: OCI-AML3-Control cell line; test: Cell viability assay, OCI-AML3-Control; assay type: cell-based; design: unit of the concentration uncertain; settings: 168 h, 7 days
Procedure: as §7

Cc1c(CN2CCC(Nc3nc(N)nc4sc(CC(F)(F)F)cc34)CC2)ccc2c1cc(C#N)n2C[C@H](C)N1CCN(S(C)(=O)=O)CC1 [Compound IA]
pIC50 (Menin): 7.44

CNc1nc(NC2CCN(Cc3ccc4c(cc(C#N)n4C[C@H](C)N4CCN(S(C)(=O)=O)CC4)c3C)CC2)c2cc([C@@H](O)C(F)(F)F)sc2n1 [Compound IB, 4-methyl-5-((4-((2-(methylamino)-6-((S)-2,2,2-trifluoro-1-hydroxyethyl)thieno[2,3-d]pyrimidin-4-yl)amino)piperidin-1-yl)methyl)-1-((S)-2-(4-(methylsulfonyl)piperazin-1-yl)propyl)-1H-indole-2-carbonitrile]
pIC50 (Menin): 7.20

CNc1nc(NC2CCN(Cc3ccc4c(cc(C#N)n4C[C@H](C)N4CCN(S(C)(=O)=O)CC4)c3C)CC2)c2cc([C@H](O)C(F)(F)F)sc2n1 [Compound IC, 4-methyl-5-((4-((2-(methylamino)-6-((R)-2,2,2-trifluoro-1-hydroxyethyl)thieno[2,3-d]pyrimidin-4-yl)amino)piperidin-1-yl)methyl)-1-((S)-2-(4-(methylsulfonyl)piperazin-1-yl)propyl)-1H-indole-2-carbonitrile]
pIC50 (Menin): 6.40

CCN(C(=O)c1cc(F)ccc1Oc1cncnc1N1CC2(CCN(C[C@H]3CC[C@H](NS(=O)(=O)CC)CC3)CC2)C1)C(C)C [SNDX-5613]
pIC50 (MV4;11-Control cell line; 144 h, 0 to 1000 nM, Table 5, read-out: IC50 MV4;11-Control (Compound + DMSO)): 8.07 | pIC50 (MV4;11-Control cell line; 144 h, 0 to 1000 nM, Table 6, read-out: IC50 MV4;11-Control (Compound + DMSO)): 8.07 | pIC50 (MV4;11-Control cell line; posaconazole (1.5 (unit uncertain)), Table 5, read-out: IC50 MV4;11-Control (Compound + posaconazole)): 8.13 | pIC50 (MV4;11-Control cell line; valspodar (1 (unit uncertain)), Table 6, read-out: IC50 MV4;11-Control (Compound + valspodar)): 8.12 | pIC50 (MOLM13-PGP cell line; Table 7, read-out: IC50 MOLM13-PGP (Compound + DMSO)): < 6.05 | pIC50 (MOLM13-PGP cell line; posaconazole (1.5 (unit uncertain)), Table 7, read-out: IC50 MOLM13-PGP (Compound + posaconazole)): 7.41 | pIC50 (MOLM13-PGP cell line; valspodar (1 (unit uncertain)), Table 8, read-out: IC50 MOLM13-PGP (Compound + valspodar)): 7.43 | pIC50 (MOLM13-Control cell line; Table 7, read-out: IC50 MOLM13-Control (Compound + DMSO)): 7.52 | pIC50 (MOLM13-Control cell line; Table 8, read-out: IC50 MOLM13-Control (compound + DMSO)): 7.55 | pIC50 (MOLM13-Control cell line; posaconazole (1.5 (unit uncertain)), Table 7, read-out: IC50 MOLM13-Control (Compound + posaconazole)): 7.61 | pIC50 (MOLM13-Control cell line; valspodar (1 (unit uncertain)), Table 8, read-out: IC50 MOLM13-Control (Compound + valspodar)): 7.53 | pIC50 (OCI-AML3-PGP cell line; Table 9, read-out: IC50 OCI-AML3-PGP (Compound + DMSO)): < 6.52 | pIC50 (OCI-AML3-PGP cell line; posaconazole (0.75 (unit uncertain)), Table 9, read-out: IC50 OCI-AML3-PGP (Compound + posaconazole)): 7.32 | pIC50 (OCI-AML3-PGP cell line; valspodar (1 (unit uncertain)), Table 10, read-out: IC50 OCI-AML3-PGP (Compound + valspodar)): 7.50 | pIC50 (MV4;11-PGP cell line; 144 h, 0 to 1000 nM, Table 5, read-out: IC50 MV4;11-PGP (Compound + DMSO)): 6.74 | pIC50 (MV4;11-PGP cell line; 144 h, 0 to 1000 nM, Table 6, read-out: IC50 MV4;11-PGP (Compound + DMSO)): 6.76 | pIC50 (MV4;11-PGP cell line; posaconazole (1.5 (unit uncertain)), Table 5, read-out: IC50 MV4;11-PGP (Compound + posaconazole)): 7.77 | pIC50 (MV4;11-PGP cell line; valspodar (1 (unit uncertain)), Table 6, read-out: IC50 MV4;11-PGP (Compound + valspodar)): 8.09 | pIC50 ([1]; Table 9, read-out: IC50 OCI-AML3-Control (Compound + DMSO)): 7.59 | pIC50 ([1]; Table 10, read-out: IC50 OCI-AML3-Control (Compound + DMSO)): 7.58 | pIC50 ([1]; posaconazole (0.75 (unit uncertain)), Table 9, read-out: IC50 OCI-AML3-Control (Compound + posaconazole)): 7.41 | pIC50 ([1]; valspodar (1 (unit uncertain)), Table 10, read-out: IC50 OCI-AML3-Control (Compound + valspodar)): 7.38
